The supplement of paper PMC10307832

Experiments:
Assay in all cases: relative viability (nuclei count vs DMSO), 5 days (fraction); higher = more cells survive
[1] = compound: CC[C@@H](C)CNCC(=O)N1CCC2=C([C@@H]1COC3=CC=CC(=C3)C)C=CS2 [RU-SKI 43] + CC(C)C[C@H](NC(=O)[C@H](Cc1ccccc1)NC(=O)c1cnccn1)B(O)O [Bortezomib] (partner 0.002 µM)
Summary of the method: (§1)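 One day after seeding in 1536-well plates, lung cancer cell lines were dosed by pin tool. Dosing was either single-drug or a fixed anchor-drug dose plus five library-drug doses (not always all listed) in √10 steps. After 5 days, nuclei were stained in one fix-and-stain step and counted on 4× images, and relative viability is the nuclei count of treated wells over that of vehicle wells, given as the median of duplicate plates.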

[2] = compound: Cn1cc(-c2cnc3ccc4ccc(CS(=O)(=O)NCc5ccccn5)cc4c(=O)c3c2)cn1 [MK-8033] + Cc1nc(Nc2ncc(C(=O)Nc3c(C)cccc3Cl)s2)cc(N2CCN(CCO)CC2)n1 [Dasatinib] (partner 0.075 µM)
Summary of the method: as §1

[3] = compound: CC[C@@H](C)CNCC(=O)N1CCC2=C([C@@H]1COC3=CC=CC(=C3)C)C=CS2 [RU-SKI 43] + C[C@]1(O)C[C@@H](c2nc(-c3ccc4ccc(-c5ccccc5)nc4c3)c3c(N)nccn32)C1 [Linsitinib] (partner 1 µM)
Summary of the method: as §1

[4] = compound: CC[C@@H](C)CNCC(=O)N1CCC2=C([C@@H]1COC3=CC=CC(=C3)C)C=CS2 [RU-SKI 43] + N=C(N)NC(=N)NCCc1ccccc1 [Phenformin] (partner 250 µM)
Summary of the method: as §1

Cell Line	relative viability ([1]; first compound 0.1 µM)	relative viability ([1]; first compound 0.3162 µM)	relative viability ([1]; first compound 1 µM)	relative viability ([1]; first compound 3.162 µM)	relative viability ([1]; first compound 10 µM)	relative viability ([2]; first compound 0.02 µM)	relative viability ([2]; first compound 0.06325 µM)	relative viability ([2]; first compound 0.2 µM)	relative viability ([2]; first compound 0.6325 µM)	relative viability ([2]; first compound 2 µM)	relative viability ([3]; first compound 0.1 µM)	relative viability ([3]; first compound 0.3162 µM)	relative viability ([3]; first compound 1 µM)	relative viability ([3]; first compound 3.162 µM)	relative viability ([3]; first compound 10 µM)	relative viability ([4]; first compound 0.1 µM)	relative viability ([4]; first compound 0.3162 µM)	relative viability ([4]; first compound 1 µM)	relative viability ([4]; first compound 3.162 µM)	relative viability ([4]; first compound 10 µM)
NCI-H1651	0.93	1.1	1.01	0.931	0.947	0.412	0.331	0.285	0.433	0.388	1.08	1.34	1.09	0.959	0.908	0.351	0.418	0.363	0.342	0.277
NCI-H1355	1.21	1.29	1.18	1.21	1.2	0.647	0.655	0.645	0.698	0.763	0.941	0.864	0.844	0.97	0.84	0.49	0.446	0.475	0.472	0.438
NCI-H1563	0.882	0.828	0.888	0.797	0.797	0.468	0.45	0.473	0.362	0.46	1.2	1.2	1.11	1.09	1.13	0.607	0.653	0.706	0.668	0.61
NCI-H1650	0.204	0.208	0.222	0.209	0.192	0.27	0.254	0.275	0.325	0.272	–	–	–	–	–	0.423	0.314	0.445	0.386	0.336
HCC-78	0.505	0.495	0.484	0.471	0.427	0.55	–	0.335	0.355	0.491	0.576	0.551	0.712	0.344	0.551	0.735	0.735	0.933	0.739	0.692
NCI-H1437	0.581	0.594	0.637	0.629	0.526	0.493	0.419	0.402	0.361	0.419	1.13	1.26	1.15	1.04	0.91	0.359	0.267	0.311	0.352	0.306
BEN	0.815	0.819	1.24	0.769	0.665	0.343	0.289	0.318	0.326	0.307	1.02	1.2	1.15	0.965	0.922	0.26	0.283	0.238	0.262	0.267
LCLC-103H	0.969	1.09	1.31	1.1	0.985	0.516	0.518	0.406	0.434	0.537	1.04	1.11	1.05	1.2	1.15	0.318	0.388	0.435	0.346	0.343
NCI-H1915	1.05	1.39	1.1	0.959	1.02	0.298	0.273	0.309	0.309	0.303	1.11	1.18	1.23	1.11	1.11	0.391	0.445	0.365	0.376	0.361
NCI-H2085	1.03	1.08	1.1	0.995	0.988	0.209	0.246	0.247	0.265	0.225	0.929	0.875	1.01	0.917	0.772	0.758	0.652	0.709	0.698	0.631
NCI-H23	0.968	1.16	0.958	1.36	0.899	0.844	0.827	0.64	0.928	0.587	0.646	0.541	0.652	0.724	0.572	0.772	0.849	0.836	0.857	0.698
EPLC-272H	0.905	1.08	1.09	–	1.09	0.375	0.273	0.297	0.319	0.336	1.35	1.37	1.41	–	1.07	0.294	0.242	0.323	0.213	0.266
EBC-1	0.469	0.428	0.652	0.451	0.382	–	–	–	–	–	1.04	0.936	0.847	0.956	0.827	–	–	–	–	–
SK-MES-1	–	–	–	–	–	0.347	0.337	0.427	0.365	0.411	1.03	1.1	1.18	1.04	1.01	0.645	0.778	0.725	0.716	0.63
A549	–	–	–	–	–	–	–	–	–	–	0.73	0.762	0.656	0.596	0.613	0.186	0.16	0.156	0.113	0.143
NCI-H2126	1.15	1.25	1.23	1.12	1.08	0.601	0.556	0.597	0.601	0.573	0.683	0.698	0.717	0.762	0.702	0.593	0.517	0.59	0.589	0.546
NCI-H2087	0.759	0.942	0.996	0.735	0.925	0.95	0.852	0.754	0.763	0.772	1.04	1.08	0.95	0.853	1.02	0.46	0.552	0.477	0.526	0.406
EMC-BAC-2	1.14	1.13	1.11	1.11	1.04	0.324	0.325	0.327	0.33	0.339	0.811	0.982	0.895	0.838	0.851	0.535	0.429	0.551	0.482	0.507
SW 900	–	–	–	–	–	0.378	0.394	0.476	0.907	0.424	–	–	–	–	–	0.626	0.64	0.785	0.687	0.611
NCI-H1623	–	–	–	–	–	0.608	0.504	0.642	0.516	0.57	–	–	–	–	–	0.629	0.564	0.619	0.583	0.53

Cell Line	relative viability ([1]; first compound 0.1 µM)	relative viability ([1]; first compound 0.3162 µM)	relative viability ([1]; first compound 1 µM)	relative viability ([1]; first compound 3.162 µM)	relative viability ([1]; first compound 10 µM)	relative viability ([2]; first compound 0.02 µM)	relative viability ([2]; first compound 0.06325 µM)	relative viability ([2]; first compound 0.2 µM)	relative viability ([2]; first compound 0.6325 µM)	relative viability ([2]; first compound 2 µM)	relative viability ([3]; first compound 0.1 µM)	relative viability ([3]; first compound 0.3162 µM)	relative viability ([3]; first compound 1 µM)	relative viability ([3]; first compound 3.162 µM)	relative viability ([3]; first compound 10 µM)	relative viability ([4]; first compound 0.1 µM)	relative viability ([4]; first compound 0.3162 µM)	relative viability ([4]; first compound 1 µM)	relative viability ([4]; first compound 3.162 µM)	relative viability ([4]; first compound 10 µM)
NCI-H647	0.956	0.841	1.08	1.25	1.14	0.164	0.164	0.188	0.197	0.173	1.15	1.56	1.38	1.47	0.982	0.631	0.621	0.84	0.686	0.501
NCI-H520	0.572	0.798	0.721	0.667	0.597	0.193	0.187	0.211	0.221	0.168	0.94	0.906	0.929	0.996	0.848	0.673	0.629	0.519	0.581	0.561
IA-LM	0.798	0.759	1.12	0.912	0.745	–	–	–	–	–	0.623	0.563	0.512	0.552	0.577	–	–	–	–	–
LC-2-ad	1.03	1.21	1.06	1.1	0.867	0.547	0.437	–	0.67	0.61	0.818	0.831	0.899	0.857	0.726	0.578	0.628	0.637	0.527	0.558
EKVX	1.09	1.24	1.2	0.958	0.585	0.519	0.499	0.569	0.434	0.551	0.948	1.24	0.977	1.05	1	0.221	0.197	0.261	0.235	0.193
NCI-H2228	1.19	1.26	0.937	1.98	0.941	0.586	0.517	0.471	0.446	0.482	0.858	0.507	0.828	0.885	0.427	0.239	0.407	0.237	0.329	0.278
NCI-H358	–	–	–	–	–	0.15	0.149	0.198	0.163	0.175	0.706	0.781	0.819	0.933	0.687	0.305	0.432	0.402	0.436	0.271
NCI-H1395	–	–	–	–	–	0.391	0.368	0.406	0.378	0.403	0.994	1.43	1.1	0.968	1.15	0.485	0.453	0.476	0.421	0.433
ChaGo-K-1	1.39	1.14	1.29	0.84	0.939	0.603	0.588	0.527	0.66	0.641	–	–	–	–	–	0.474	0.491	0.548	0.479	0.488
NCI-H1299	0.985	1.04	1.06	1.05	1.02	–	–	–	–	–	1.03	1.2	1.1	1.04	0.965	–	–	–	–	–
NCI-H1703	0.345	0.227	0.371	0.282	0.227	–	–	–	–	–	0.653	1.02	0.545	0.636	0.503	–	–	–	–	–
NCI-H2342	–	–	–	–	–	0.329	0.277	0.35	0.33	0.352	–	–	–	–	–	0.606	0.562	0.584	0.528	0.634
NCI-H2170	–	–	–	–	–	0.681	0.553	0.604	0.581	0.481	–	–	–	–	–	0.462	0.417	0.395	0.431	0.403
HCC-44	0.918	0.864	1	0.849	0.852	–	–	–	–	–	0.595	0.647	0.835	0.69	0.645	0.247	0.261	0.409	0.18	0.277
NCI-H522	–	–	–	–	–	0.776	0.696	0.815	1.07	0.818	–	–	–	–	–	0.663	0.746	0.749	0.647	0.684
Calu-6	1.1	0.966	1.04	1.1	0.974	–	–	–	–	–	0.942	1.05	0.999	0.929	1.02	–	–	–	–	–
NCI-H1793	–	–	–	–	–	0.425	0.388	0.394	0.365	0.338	0.98	0.959	0.988	0.928	0.809	0.401	0.391	0.464	0.323	0.3
LK-2	–	–	–	–	–	0.269	–	0.251	0.376	0.304	0.74	0.564	0.674	0.495	0.889	0.484	0.404	0.505	0.811	0.501
NCI-H1944	–	–	–	–	–	0.205	0.201	0.221	0.202	0.234	1.24	1.2	1.34	1.24	1.15	0.214	0.21	0.225	0.213	0.177
